Assay results as given in paper PMC9331678 (Molecules, 2022).

Legend:
[1] = 24 h therapeutic monitoring and noncompartmental pharmacokinetics in chronic lymphocytic leukemia patients receiving IBR; conditions: plasma; for k el / half-life / MRT last / MRT / Cmax / Tmax / AUCPEO AUC %Extrapolation Obs / AUCPEP AUC %Extrapolation Pred / AUMCIFO AUMC Infinity Obs / AUMCIFP AUMC Infinity Pred / AUMCLST AUMC to Last Nonzero Conc / AUMCPEO AUMC %Extrapolation Obs / AUMCPEP AUMC % Extrapolation Pred / TMAX Time of CMAX: steady state
Experimental: In order to provide a proof of concept, IBR and DIB were assayed in the plasma samples of three patients treated with IBR. […] The criteria for inclusion were (1) age of ≥18 years, (2) treatment ongoing with IBR for more than 10 days, and (3) no concurrent administration of medications undergoing CYP3A4 metabolism. The subjects gave their written informed consent. Each participant took either two or three 140 mg Imbruvica capsules, as per the therapeutic provision, in the presence of the recruiting clinician.
Blood samples were centrifuged at 3000 rpm for 10 min in a Hettich Universal 320R centrifuge (Auro-Science, Budapest, Hungary) at 10 °C. Plasma was separated and frozen at −70 °C until analysis was done within 2 weeks.

[2] = Stability in plasma at −70 °C; assay type: in vitro ADME
[3] = 6 h benchtop (early preanalytical) stability in whole blood and in plasma; assay type: in vitro ADME, human
Experimental: Six independent plasma samples were processed. The reference solutions were 140 µL acetonitrile-water 4:1 (v/v) mixtures spiked as described above. The mixtures and the reference solutions were subsequently diluted with 90 µL water. Internal standard-corrected matrix factors were calculated as the peak area ratios of the analytes and the internal standards in prepared plasma versus those in a neat solution. In the stability studies, the recoveries of IBR and DIB were calculated as the ratio of the concentrations measured after incubation and those measured at the beginning of the study.
The preanalytical stability of IBR and DIB was evaluated by adding 20 µL methanol solutions containing 500 ng/mL IBR and DIB to two 1.0 mL aliquots of blood freshly drawn into phlebotomy tubes containing K3-EDTA. Three samples, 3 mL each, were taken from three healthy volunteers (manuscript authors G.B.K., I.V. and Z.K.). One of the fractions was centrifuged at 3000 rpm and 10 °C for 10 min immediately after spiking the analytes, and plasma was separated. Both spiked whole blood and the separated plasma were kept at ambient temperature for 6 h. […] Fifty microliters was drawn from the supernatant of the whole blood sample as well as from the plasma, and was processed as described in Section 2.2.

[4] = population modeling study; cited from earlier work
[5] = human, oral, 420 mg, Patient 1, 420 mg IBR per day
[6] = human, oral, 420 mg, Patient 2, 420 mg IBR per day

Nc1ncnc2c1c(-c1ccc(Oc3ccccc3)cc1)nn2[C@@H]1CCCN(C(=O)C(O)CO)C1 (stereo partly drawn) [Dihydrodiol Ibrutinib, 1-[(3R)-3-[4-amino-3-(4-phenoxyphenyl)pyrazolo[3,4-d]pyrimidin-1-yl]piperidin-1-yl]-2,3-dihydroxypropan-1-one]
concentration at 2 h ([1]; human, oral, 420 mg, Conc., subj=2 (420 mg IBR per day), 2 h postdose): 227 nM | k el ([1]; human, oral, 420 mg, LAMZ Lambda z, subj=1 (420 mg IBR per day)): 1.9e-05 s⁻¹ | k el ([1]; human, oral, 420 mg, LAMZ Lambda z, subj=2 (420 mg IBR per day)): 3.6e-05 s⁻¹ | half-life ([1]; human, oral, 420 mg, LAMZHL Half-Life Lambda z, subj=1 (420 mg IBR per day)): 608 min | half-life ([1]; human, oral, 420 mg, LAMZHL Half-Life Lambda z, subj=2 (420 mg IBR per day)): 321 min | MRT last ([1]; human, oral, 420 mg, MRT0–24, Patient 1, 420 mg IBR per day): 7.07 h | MRT last ([1]; human, oral, 420 mg, MRT0–24, Patient 2, 420 mg IBR per day): 4.6 h | MRT ([1]; human, oral, 420 mg, MRTEVIFO MRT Extravasc Infinity Obs, subj=1 (420 mg IBR per day)): 12.7 h | MRT ([1]; human, oral, 420 mg, MRTEVIFO MRT Extravasc Infinity Obs, subj=2 (420 mg IBR per day)): 5.65 h | MRT ([1]; human, oral, 420 mg, MRTEVIFP MRT Extravasc Infinity Pred, subj=1 (420 mg IBR per day)): 12.9 h | MRT ([1]; human, oral, 420 mg, MRTEVIFP MRT Extravasc Infinity Pred, subj=2 (420 mg IBR per day)): 5.63 h | MRT ([1]; human, oral, 420 mg, MRTEVLST MRT Extravasc to Last Nonzero Conc, subj=1 (420 mg IBR per day)): 7.07 h | MRT ([1]; human, oral, 420 mg, MRTEVLST MRT Extravasc to Last Nonzero Conc, subj=2 (420 mg IBR per day)): 4.6 h | Cmax [1, 5]: 185 nM | Cmax [1, 6]: 254 nM | k el ([1]; human, oral, 420 mg, ke, Patient 1, 420 mg IBR per day): 1.92e-05 s⁻¹ | k el ([1]; human, oral, 420 mg, ke, Patient 2, 420 mg IBR per day): 3.61e-05 s⁻¹ | half-life ([1]; human, oral, 420 mg, t1/2, Patient 1, 420 mg IBR per day): 606 min | half-life ([1]; human, oral, 420 mg, t1/2, Patient 2, 420 mg IBR per day): 321 min | Tmax [1, 5]: 2 h | Tmax [1, 6]: 1 h | concentration at 4 h ([1]; human, oral, 420 mg/day, Conc., subj=2 (420 mg IBR per day), 4 h postdose): 172 nM | concentration at 23 h ([1]; human, oral, 420 mg/day, Conc., subj=2 (420 mg IBR per day), 23 h postdose): 14.6 nM | concentration at 24 h ([1]; human, oral, 420 mg/day, Conc., subj=2 (420 mg IBR per day), 24 h postdose): 13.2 nM | AUCPEO AUC %Extrapolation Obs ([1]; subj=1 (420 mg IBR per day)): 17.7444% | AUCPEP AUC %Extrapolation Pred ([1]; subj=1 (420 mg IBR per day)): 18.5268% | AUMCIFO AUMC Infinity Obs ([1]; subj=1 (420 mg IBR per day)): 36155.1204 h2*nmol/L | AUMCIFP AUMC Infinity Pred ([1]; subj=1 (420 mg IBR per day)): 37213.6967 h2*nmol/L | AUMCLST AUMC to Last Nonzero Conc ([1]; subj=1 (420 mg IBR per day)): 16593.9650 h2*nmol/L | AUMCPEO AUMC %Extrapolation Obs ([1]; subj=1 (420 mg IBR per day)): 54.1034% | AUMCPEP AUMC % Extrapolation Pred ([1]; subj=1 (420 mg IBR per day)): 55.4090% | TMAX Time of CMAX ([1]; subj=1 (420 mg IBR per day)): 2.0000 h | AUCPEO AUC %Extrapolation Obs ([1]; subj=2 (420 mg IBR per day)): 3.8711% | AUCPEP AUC %Extrapolation Pred ([1]; subj=2 (420 mg IBR per day)): 3.8177% | AUMCIFO AUMC Infinity Obs ([1]; subj=2 (420 mg IBR per day)): 14854.1469 h2*nmol/L | AUMCIFP AUMC Infinity Pred ([1]; subj=2 (420 mg IBR per day)): 14807.8422 h2*nmol/L | AUMCLST AUMC to Last Nonzero Conc ([1]; subj=2 (420 mg IBR per day)): 11625.7539 h2*nmol/L | AUMCPEO AUMC %Extrapolation Obs ([1]; subj=2 (420 mg IBR per day)): 21.7340% | AUMCPEP AUMC % Extrapolation Pred ([1]; subj=2 (420 mg IBR per day)): 21.4892% | TMAX Time of CMAX ([1]; subj=2 (420 mg IBR per day)): 1.0000 h | AUCPEO AUC %Extrapolation Obs ([1]; subj=3 (280 mg IBR per day)): 4.3920% | AUCPEP AUC %Extrapolation Pred ([1]; subj=3 (280 mg IBR per day)): 4.2856% | AUMCIFO AUMC Infinity Obs ([1]; subj=3 (280 mg IBR per day)): 10834.3795 h2*nmol/L | AUMCIFP AUMC Infinity Pred ([1]; subj=3 (280 mg IBR per day)): 10766.9678 h2*nmol/L | AUMCLST AUMC to Last Nonzero Conc ([1]; subj=3 (280 mg IBR per day)): 8171.9228 h2*nmol/L | AUMCPEO AUMC %Extrapolation Obs ([1]; subj=3 (280 mg IBR per day)): 24.5741% | AUMCPEP AUMC % Extrapolation Pred ([1]; subj=3 (280 mg IBR per day)): 24.1019% | TMAX Time of CMAX ([1]; subj=3 (280 mg IBR per day)): 2.0000 h | time after drug intake at which maximum concentrations were attained ([1]; three chronic lymphocyte leukemia patients): ≤ 2 h | stability in plasma [2]: 3 month | recovery at 9.8 ng/mL ([3]; human, plasma (separated from spiked K3-EDTA whole blood), plasma, ambient temperature (25 °C), up to 6 h, all analyses): ≥ 85% | stability ([3]; whole blood and plasma kept at ambient temperature for 6 h): acceptable for clinical use | cases with recoveries lower than 85% (of fifteen analyses) ([3]; whole blood, ambient temperature (25 °C), up to 6 h): one | interindividual variability in the clearance [4]: 51% | intraindividual variability in the clearance [4]: 26%
